According to patent US20080021026A1, “BENZOTHIOPHENE INHIBITORS OF RHO KINASE” (priority 2006, published 2008):
Where two headings read alike, the source gives them in different places.

Legend:
[1] = target: T1, recombinant N-terminal GST-tagged human Rho kinase 1 (ROCK1, amino acids 1-535) (Homo sapiens, UniProt Q13464); assay: In vitro Rho kinase assay (luciferase-based ATP consumption), ROCK1; assay type: biochemical
T1 construct: ROCK1, amino acids 1-535; purchased Invitrogen Inc. PV-3691
How it was run: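 GST-ROCK1 (aa 1-535) at 0.82 μg/ml with 100 μg/ml S6 peptide and 3 µM ATP in Tris pH 7.5 buffer with MgCl2, CaCl2, EGTA, BSA; compound added after reaction start, 2 h at 30 °C. Remaining ATP read by luciferase luminescence; efficacy as percent of H-1152P positive control.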

[2] = target: T2, recombinant N-terminal GST-tagged human Rho kinase 2 (ROCK2, amino acids 1-552) (Homo sapiens, UniProt O75116); assay: In vitro Rho kinase assay (luciferase-based ATP consumption), ROCK2; assay type: biochemical
T2 construct: ROCK2, amino acids 1-552; purchased Invitrogen Inc. PV3759
T2 sequence (O75116 1-552): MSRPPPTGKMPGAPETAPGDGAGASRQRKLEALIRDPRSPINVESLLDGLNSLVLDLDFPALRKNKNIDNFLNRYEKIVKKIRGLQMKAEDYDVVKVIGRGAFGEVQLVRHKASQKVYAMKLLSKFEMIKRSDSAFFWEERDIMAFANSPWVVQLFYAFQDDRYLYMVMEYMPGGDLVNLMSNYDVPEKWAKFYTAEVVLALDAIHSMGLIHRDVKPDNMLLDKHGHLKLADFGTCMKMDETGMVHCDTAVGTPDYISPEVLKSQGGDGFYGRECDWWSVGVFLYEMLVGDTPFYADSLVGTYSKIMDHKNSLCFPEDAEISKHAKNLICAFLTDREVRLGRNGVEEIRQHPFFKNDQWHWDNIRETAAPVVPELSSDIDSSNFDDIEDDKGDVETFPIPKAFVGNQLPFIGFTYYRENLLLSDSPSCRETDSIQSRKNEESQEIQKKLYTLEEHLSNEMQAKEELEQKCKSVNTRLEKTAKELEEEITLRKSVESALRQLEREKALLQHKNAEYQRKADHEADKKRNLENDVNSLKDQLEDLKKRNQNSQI
How it was run: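 GST-ROCK2 (aa 1-552, 0.82 μg/ml) with 100 μg/ml S6 peptide and 3 µM ATP in Tris pH 7.5 buffer with MgCl2/CaCl2/EGTA/BSA, compound added just after reaction start, 2 h at 30 °C. Remaining ATP read by luciferase luminescence. Efficacy expressed as percentage of H-1152P positive control.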

[3] = recombinant GST-tagged human ROCK1, luciferase-based ATP consumption, read-out: ROCK1 IC50
[4] = recombinant GST-tagged human ROCK2, luciferase-based ATP consumption, read-out: ROCK2 IC50
[5] = ROCK1 IC50, recombinant GST-tagged human ROCK1, luciferase-based ATP consumption
[6] = ROCK2 IC50, recombinant GST-tagged human ROCK2, luciferase-based ATP consumption

T1 sequence (Q13464 1-535): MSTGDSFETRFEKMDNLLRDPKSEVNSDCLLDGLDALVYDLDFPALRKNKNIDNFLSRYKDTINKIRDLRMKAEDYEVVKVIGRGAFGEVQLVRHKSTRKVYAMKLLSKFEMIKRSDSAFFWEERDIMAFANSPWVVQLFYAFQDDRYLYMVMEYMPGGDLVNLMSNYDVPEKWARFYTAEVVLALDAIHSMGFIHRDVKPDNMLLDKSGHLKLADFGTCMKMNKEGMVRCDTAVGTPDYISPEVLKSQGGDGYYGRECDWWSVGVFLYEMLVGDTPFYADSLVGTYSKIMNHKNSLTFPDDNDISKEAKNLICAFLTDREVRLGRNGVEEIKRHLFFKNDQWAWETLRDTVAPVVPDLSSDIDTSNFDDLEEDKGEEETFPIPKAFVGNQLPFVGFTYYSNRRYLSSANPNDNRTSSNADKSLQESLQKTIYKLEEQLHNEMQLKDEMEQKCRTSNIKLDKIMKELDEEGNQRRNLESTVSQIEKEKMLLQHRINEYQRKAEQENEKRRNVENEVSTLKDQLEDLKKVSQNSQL

IC50 [1, 3] [µM] | IC50 [2, 4] [µM] | SMILES | IC50 [1, 5] [µM] | IC50 [2, 6] [µM]
< 5 | < 5 | Cc1c(-c2ccnc(N)n2)sc2ccc(CNC(=O)CCc3cccc(C(F)(F)F)c3)cc12 [Example 294, Cc1c(sc2ccc(CNC(═O)CCc3cccc(c3)C(F)(F)F)cc12)-c4ccnc(N)n4] |  | 
< 5 | < 5 | Cc1c(-c2ccnc(N)n2)sc2ccc(CNC(=O)C=Cc3ccccc3)cc12 [Example 128, Cc1c(sc2ccc(CNC(═O)C═Cc3ccccc3)cc12)-c4ccnc(N)n4] |  | 
< 5 | < 5 | CC(=O)Nc1cccc(Nc2ccc3sc(-c4ccnc(N)n4)c(C)c3c2)c1 [Example 58, N-(3-(2-(2-Aminopyrimidin-4-yl)-3-methylbenzo[b]thiophen-5-ylamino)phenyl)acetamide] |  | 
> 5 | < 5 | Cc1c(-c2ccnc(N)n2)sc2ccc(CNC(=O)C(F)(F)F)cc12 [Example 105, Cc1c(sc2ccc(CNC(═O)C(F)(F)F)cc12)-c3ccnc(N)n3] |  | 
> 5 | < 5 | Cc1ccccc1C(=O)NCc1ccc2sc(-c3ccnc(N)n3)c(C)c2c1 [Example 119, Cc1ccccc1C(═O)NCc2ccc3sc(c(C)c3c2)-c4ccnc(N)n4] |  | 
> 5 | > 5 | Cc1c(-c2ccnc(N)n2)sc2ccc(CNC(=O)CC(C)CC(C)(C)C)cc12 (stereo not drawn) [Example 158, CC(CC(═O)NCc1ccc2sc(c(C)c2c1)-c3ccnc(N)n3)CC(C)(C)C] |  | 
< 5 | > 5 | Cc1c(-c2ccnc(N)n2)sc2ccc(CNC(=O)C(C)NC(=O)OC(C)(C)C)cc12 (stereo not drawn) [Example 241, C[C](NC(═O)OC(C)(C)C)C(═O)NCc1ccc2sc(c(C)c2c1)-c3ccnc(N)n3] |  | 
> 5 | < 5 | COc1ccc(Br)c(C(=O)NCc2ccc3sc(-c4ccnc(N)n4)c(C)c3c2)c1 [Example 310, COc1ccc(Br)c(c1)C(═O)NCc2ccc3sc(c(C)c3c2)-c4ccnc(N)n4] |  | 
> 5 | < 5 | Cc1c(-c2ccnc(N)n2)sc2ccc(CNC(=O)C(C)c3ccc(-c4ccccc4)c(F)c3)cc12 (stereo not drawn) [Example 318, CC(C(═O)NCc1ccc2sc(c(C)c2c1)-c3ccnc(N)n3)c4ccc(c(F)c4)-c5ccccc5] |  | 
> 5 | < 5 | COc1ccc(Cl)cc1C(=O)NCc1ccc2sc(-c3ccnc(N)n3)c(C)c2c1 [Example 232, COc1ccc(Cl)cc1C(═O)NCc2ccc3sc(c(C)c3c2)-c4ccnc(N)n4] |  | 
< 5 | < 5 | Cc1c(-c2ccnc(N)n2)sc2ccc(CNC(=O)CNC(=O)OC(C)(C)C)cc12 [Example 196, Cc1c(sc2ccc(CNC(═O)CNC(═O)OC(C)(C)C)cc12)-c3ccnc(N)n3] |  | 
> 5 | > 5 | Cc1c(-c2ccnc(N)n2)sc2ccc(CNC(=O)C3CN(C(=O)OC(C)(C)C)CCN3)cc12 (stereo not drawn) [Example 308, Cc1c(sc2ccc(CNC(═O)[C]3CN(CCN3)C(═O)OC(C)(C)C)cc12)-c4ccnc(N)n4] |  | 
< 5 | < 5 | Cc1c(-c2ccnc(N)n2)sc2ccc(Nc3cccc(NC(=O)c4ccc(C(=O)O)cc4)c3)cc12 [Example 63, 4-(3-(2-(2-Aminopyrimidin-4-yl)-3-methylbenzo[b]thiophen-5-ylamino)phenylcarbamoyl)benzoic acid] |  | 
> 5 | < 5 | Cc1c(-c2ccnc(N)n2)sc2ccc(CNC(=O)C3CCCO3)cc12 (stereo not drawn) [Example 106, Cc1c(sc2ccc(CNC(═O)C3CCCO3)cc12)-c4ccnc(N)n4] |  | 
> 5 | < 5 | Cc1c(-c2ccnc(N)n2)sc2ccc(CNC(=O)c3cc(Cl)ccc3O)cc12 [Example 191, Cc1c(sc2ccc(CNC(═O)c3cc(Cl)ccc3O)cc12)-c4ccnc(N)n4] |  | 
< 5 | < 5 | Cc1c(-c2ccnc(N)n2)sc2ccc(CNC(=O)c3cccc(O)c3)cc12 [Example 121, Cc1c(sc2ccc(CNC(═O)c3cccc(O)c3)cc12)-c4ccnc(N)n4] |  | 
< 5 | < 5 | Cc1cccc(C(=O)NCc2ccc3sc(-c4ccnc(N)n4)c(C)c3c2)c1C [Example 133, Cc1cccc(c1C)C(═O)NCc2ccc3sc(c(C)c3c2)-c4ccnc(N)n4] |  | 
> 5 | > 5 | COc1ccc(OC)c(Cc2ccc3sc(-c4ccnc(N)n4)c(C)c3c2)c1 [Example 38, 4-(5-(2,5-Dimethoxybenzyl)-3-methylbenzo[b]thiophen-2-yl)pyrimidin-2-amine] |  | 

IC50 [1, 3] [µM] | IC50 [2, 4] [µM] | SMILES | IC50 [1, 5] [µM] | IC50 [2, 6] [µM]
> 5 | < 5 | Cc1c(-c2ccnc(N)n2)sc2ccc(CNC(=O)CCc3ccccc3O)cc12 [Example 176, Cc1c(sc2ccc(CNC(═O)CCc3ccccc3O)cc12)-c4ccnc(N)n4] |  | 
< 5 | < 5 | COc1cc(OC)c(C(=O)NCc2ccc3sc(-c4ccnc(N)n4)c(C)c3c2)c(OC)c1 [Example 277, COc1cc(OC)c(C(═O)NCc2ccc3sc(c(C)c3c2)-c4ccnc(N)n4)c(OC)c1] |  | 
< 5 | < 5 | Cc1c(-c2ccnc(N)n2)sc2ccc(Oc3cccc([N+](=O)[O-])c3)cc12 [Example 80, 4-(3-Methyl-5-(3-nitrophenoxy)benzo[b]thiophen-2-yl)pyrimidin-2-amine] |  | 
> 5 | < 5 | Cc1c(-c2ccnc(N)n2)sc2ccc(CNC(=O)c3cncc(Br)c3)cc12 [Example 271, Cc1c(sc2ccc(CNC(═O)c3cncc(Br)c3)cc12)-c4ccnc(N)n4] |  | 
> 5 | > 5 | COc1cccc(CCc2ccc3sc(-c4ccnc(N)n4)c(C)c3c2)c1 [Example 90, 4-(5-(3-Methoxyphenethyl)-3-methylbenzo[b]thiophen-2-yl)pyrimidin-2-amine] |  | 
> 5 | < 5 | Cc1cc(C(=O)NCc2ccc3sc(-c4ccnc(N)n4)c(C)c3c2)n[nH]1 [Example 113, Cc1cc(n[nH]1)C(═O)NCc2ccc3sc(c(C)c3c2)-c4ccnc(N)n4] |  | 
 |  | Cc1c(-c2ccnc(N)n2)sc2ccc(CNC(=O)c3ccc(F)cc3Cl)cc12 [Example 194, Cc1c(sc2ccc(CNC(═O)c3ccc(F)cc3Cl)cc12)-c4ccnc(N)n4] | > 5 | < 5
> 5 | < 5 | Cc1c(-c2ccnc(N)n2)sc2ccc(C(=O)c3ccccc3)cc12 [Example 87, (2-(2-Aminopyrimidin-4-yl)-3-methylbenzo[b]thiophen-5-yl)(phenyl)methanone] |  | 
< 5 | < 5 | Cc1c(-c2ccnc(N)n2)sc2ccc(CNC(=O)c3ccc4cccc(O)c4n3)cc12 [Example 240, Cc1c(sc2ccc(CNC(═O)c3ccc4cccc(O)c4n3)cc12)-c5ccnc(N)n5] |  | 
> 5 | > 5 | Cc1c(-c2ccnc(N)n2)sc2ccc(CNC(=O)C=O)cc12 [Example 96, Cc1c(sc2ccc(CNC(═O)C═O)cc12)-c3ccnc(N)n3] |  | 
> 5 | < 5 | Cc1ccccc1CCC(=O)NCc1ccc2sc(-c3ccnc(N)n3)c(C)c2c1 [Example 167, Cc1ccccc1CCC(═O)NCc2ccc3sc(c(C)c3c2)-c4ccnc(N)n4] |  | 
> 5 | < 5 | Cc1c(-c2ccnc(N)n2)sc2ccc(CNC(=O)c3ccc(F)cc3)cc12 [Example 123, Cc1c(sc2ccc(CNC(═O)c3ccc(F)cc3)cc12)-c4ccnc(N)n4] |  | 
< 5 | < 5 | Cc1c(-c2ccnc(N)n2)sc2ccc(CNC(=O)c3c(O)ccc4ccccc34)cc12 [Example 237, Cc1c(sc2ccc(CNC(═O)c3c(O)ccc4ccccc34)cc12)-c5ccnc(N)n5] |  | 
< 5 | < 5 | Cc1c(-c2ccnc(N)n2)sc2ccc(CNC(=O)c3cc4cc(Cl)ccc4o3)cc12 [Example 258, Cc1c(sc2ccc(CNC(═O)c3cc4cc(Cl)ccc4o3)cc12)-c5ccnc(N)n5] |  | 
< 5 | < 5 | Cc1c(-c2ccnc(N)n2)sc2ccc(CNC(=O)c3cc(Cl)ccc3[N+](=O)[O-])cc12 [Example 269, Cc1c(sc2ccc(CNC(═O)c3cc(Cl)ccc3[N+]([O−])═O)cc12)-c4ccnc(N)n4] |  | 
< 5 | > 5 | Cc1c(-c2ccnc(N)n2)sc2ccc(C(=O)O)cc12 [Example 19, 2-(2-Aminopyrimidin-4-yl)-3-methylbenzo[b]thiophene-5-carboxylic acid] |  | 
 |  | Cc1c(-c2ccnc(N)n2)sc2ccc(CNC(=O)c3ccc(Cl)cc3Cl)cc12 [Example 246, Cc1c(sc2ccc(CNC(═O)c3ccc(Cl)cc3Cl)cc12)-c4ccnc(N)n4] | < 5 | < 5
< 5 | < 5 | Cc1c(-c2ccnc(N)n2)sc2ccc(CNC(=O)CC(C)C)cc12 [Example 101, CC(C)CC(═O)NCc1ccc2sc(c(C)c2c1)-c3ccnc(N)n3] |  | 

SMILES | IC50 [1, 3] [µM] | IC50 [2, 4] [µM] | IC50 [1, 5] [µM] | IC50 [2, 6] [µM]
CCCCCc1ccc(C(=O)NCc2ccc3sc(-c4ccnc(N)n4)c(C)c3c2)cc1 [Example 251, CCCCCc1ccc(cc1)C(═O)NCc2ccc3sc(c(C)c3c2)-c4ccnc(N)n4] | < 5 | > 5 |  | 
Cc1ccc(C(=O)NCc2ccc3sc(-c4ccnc(N)n4)c(C)c3c2)cc1 [Example 120, Cc1ccc(cc1)C(═O)NCc2ccc3sc(c(C)c3c2)-c4ccnc(N)n4] | > 5 | < 5 |  | 
Cc1ccc(C(=O)CCC(=O)NCc2ccc3sc(-c4ccnc(N)n4)c(C)c3c2)cc1 [Example 250, Cc1ccc(cc1)C(═O)CCC(═O)NCc2ccc3sc(c(C)c3c2)-c4ccnc(N)n4] | > 5 | < 5 |  | 
